Measurements: article PMC4774911, “Biochemical Screening of Five Protein Kinases from Plasmodium falciparum against 14,000 Cell-Active Compounds” (PLoS ONE, 2016)
Where two headings read alike, the source gives them in different places.

Assays:
[1] = test system: P. falciparum DD2; parameters: method as in ChEMBL; conditions: ref ChEMBL; cited from earlier work
[2] = test system: 3D7 PFLDH; parameters: method as in ChEMBL; conditions: ref ChEMBL; cited from earlier work
[3] = test system: P. falciparum 3D7 cells; conditions: P. falciparum 3D7, cited from earlier work
[4] = molecular target: T1, PKG (Plasmodium falciparum, UniProt Q8I719); assay: PKG IC50 (supplementary data file); type: biochemical
Source text: (§1) Supplement pone.0149996.s003.xls, sheet "combined_1_sorted"

[5] = molecular target: T2, Plasmodium falciparum calcium-dependent protein kinase 4 (CDPK4) (Plasmodium falciparum, UniProt Q8IBS5); assay: CDPK4 Kinase-Glo ATP-consumption screen and dose-response; type: biochemical; conditions: hits below 1 uM
T2 construct: 6-Histidine (N); made in house
T2 sequence (Q8IBS5 1-528): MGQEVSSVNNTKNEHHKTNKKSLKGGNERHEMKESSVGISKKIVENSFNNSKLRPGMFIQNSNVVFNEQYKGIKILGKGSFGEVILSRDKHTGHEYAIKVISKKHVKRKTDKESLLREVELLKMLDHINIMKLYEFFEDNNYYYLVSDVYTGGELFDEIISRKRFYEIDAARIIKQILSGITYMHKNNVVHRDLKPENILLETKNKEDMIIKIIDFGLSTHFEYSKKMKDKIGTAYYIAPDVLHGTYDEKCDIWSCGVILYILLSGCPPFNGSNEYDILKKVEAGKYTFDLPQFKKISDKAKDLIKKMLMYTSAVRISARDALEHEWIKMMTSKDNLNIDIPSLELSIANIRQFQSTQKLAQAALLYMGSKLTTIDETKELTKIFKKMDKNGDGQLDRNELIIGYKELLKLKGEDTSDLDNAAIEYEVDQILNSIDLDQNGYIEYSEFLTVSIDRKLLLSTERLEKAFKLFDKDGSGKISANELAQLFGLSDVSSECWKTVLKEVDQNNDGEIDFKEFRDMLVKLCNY
Procedure: Biochemical assays were performed in white 384-well plates (Nunc). Liquid transfers were done manually with 8-channel pipets. Compounds were initially tested in a single-point screen (final concentration 1 μM). […] The catalytic activity of each kinase was considered proportional to ATP consumed, as determined from measurements of residual [ATP] with the luciferase-based reagent Kinase-Glo (Promega) following incubation. Luminescence (proportional to residual [ATP]) was measured on the plate readers FLx800 (BioTek Instruments, Winooski, VT, USA) and MicroBeta^2 (PerkinElmer, Waltham, MA, USA). Incubation times were chosen to ensure near-complete ATP depletion in the absence of inhibition, thus maximizing the difference in signal between inhibited and uninhibited wells.
40 μM Syntide-2 was used as a substrate; BKI-1 [14] was used as a control inhibitor, while reaction mixtures lacking Syntide-2 were included as an additional negative control. Incubation time was 90 minutes. Reactions were terminated by adding excess EGTA (5 mM), which sequesters Ca^2+ and halts calcium-dependent kinase activity.

[6] = test system: HepG2 cells; conditions: HepG2 cells, cited from earlier work
[7] = test system: 3D7 PFLDH; parameters: method as in F.J. Gamo et al., Nature 2010; conditions: downloaded from ChEMBL ref F.J. Gamo et al., Nature 2010; cited from earlier work
[8] = test system: DD2; parameters: method as in F.J. Gamo et al., Nature 2010; conditions: P. falciparum Dd2; downloaded from ChEMBL ref F.J. Gamo et al., Nature 2010; cited from earlier work
[9] = molecular target: T1, PKG; assay: PKG IC50 (supplementary data file of hits); type: biochemical
Source text: as §1

[10] = molecular target: T3, Plasmodium falciparum calcium-dependent protein kinase 1 (CDPK1) (Plasmodium falciparum, UniProt P62344); assay: CDPK1 Kinase-Glo ATP-consumption screen and dose-response; type: biochemical; conditions: hits below 1 uM; read-out: CDPK1 IC50
T3 construct: 6-Histidine (N); made in house
In short: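 Single-point testing used 1 μM final compound, then dose-response, against CDPK4 and CDPK1 with Syntide-2 (40 μM) as substrate. After 90 min, reactions were halted by 5 mM EGTA, and kinase activity was inferred from depleted ATP via Kinase-Glo luminescence.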

[11] = downloaded from ChEMBL ref F.J. Gamo et al., Nature 2010

T1 sequence (Q8I719 whole entry): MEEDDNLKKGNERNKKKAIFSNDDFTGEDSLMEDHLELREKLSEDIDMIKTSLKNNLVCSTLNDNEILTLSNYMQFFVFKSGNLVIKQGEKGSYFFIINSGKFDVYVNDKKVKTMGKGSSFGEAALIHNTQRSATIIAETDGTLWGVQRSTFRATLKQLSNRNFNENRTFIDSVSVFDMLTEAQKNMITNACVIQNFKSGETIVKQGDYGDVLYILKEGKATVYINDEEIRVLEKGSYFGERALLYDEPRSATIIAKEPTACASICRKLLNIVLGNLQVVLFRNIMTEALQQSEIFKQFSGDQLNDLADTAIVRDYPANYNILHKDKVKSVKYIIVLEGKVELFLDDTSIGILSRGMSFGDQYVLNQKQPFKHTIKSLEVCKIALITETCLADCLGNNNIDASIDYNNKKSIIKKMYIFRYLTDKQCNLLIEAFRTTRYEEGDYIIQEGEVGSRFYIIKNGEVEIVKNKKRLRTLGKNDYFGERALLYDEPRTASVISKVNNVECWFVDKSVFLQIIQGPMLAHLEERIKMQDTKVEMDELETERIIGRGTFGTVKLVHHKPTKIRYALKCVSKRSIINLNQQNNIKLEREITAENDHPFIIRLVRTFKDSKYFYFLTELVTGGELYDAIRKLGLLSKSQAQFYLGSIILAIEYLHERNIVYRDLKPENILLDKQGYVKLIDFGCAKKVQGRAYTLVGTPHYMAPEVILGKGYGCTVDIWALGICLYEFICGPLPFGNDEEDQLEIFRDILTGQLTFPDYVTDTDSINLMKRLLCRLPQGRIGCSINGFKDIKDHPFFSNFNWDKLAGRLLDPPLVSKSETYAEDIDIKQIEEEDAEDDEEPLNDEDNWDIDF
T3 sequence (P62344 whole entry): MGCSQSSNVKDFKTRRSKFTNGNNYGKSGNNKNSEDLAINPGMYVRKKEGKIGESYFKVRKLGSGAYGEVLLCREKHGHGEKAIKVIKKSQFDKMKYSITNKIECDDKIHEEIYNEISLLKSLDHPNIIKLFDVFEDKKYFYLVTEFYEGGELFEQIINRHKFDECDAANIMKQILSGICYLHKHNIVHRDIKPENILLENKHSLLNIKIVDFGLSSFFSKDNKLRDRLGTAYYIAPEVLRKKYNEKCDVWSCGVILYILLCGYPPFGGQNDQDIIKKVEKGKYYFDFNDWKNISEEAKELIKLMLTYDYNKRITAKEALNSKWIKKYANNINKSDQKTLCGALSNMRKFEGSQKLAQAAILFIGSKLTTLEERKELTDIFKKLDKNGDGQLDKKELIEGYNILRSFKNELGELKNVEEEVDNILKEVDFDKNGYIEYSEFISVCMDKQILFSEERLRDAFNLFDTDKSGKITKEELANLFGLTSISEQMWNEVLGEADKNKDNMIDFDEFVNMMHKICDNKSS

Structure (SMILES)	IC50 [4] [nM]	IC50 [5] [nM]	IC50 [9] [nM]	IC50 [10] [nM]	PCT_INHB_DD2 [1]	PCT_INHIB_3D7_PFLDH [2]	PCT_IHB_3D7 ([3]; ref ChEMBL)	pXC50_3D7 ([3]; ref ChEMBL)	PCT_INHIB_HEPG2 ([6]; ref ChEMBL)	PCT_INHIB_3D7_PFLDH [7]	PCT_INHB_DD2 [8]	PCT_IHB_3D7 [3, 11]	pXC50_3D7 [3, 11]	PCT_INHIB_HEPG2 [6, 11]
O=C(NCC(c1ccc(C(F)(F)F)cc1)N1CCCC1)c1cc(-c2ccncc2)c(-c2cccc(O)c2)o1.O=C(O)C(F)(F)F (stereo not drawn) [TCMDC-135665]	–	178	7640	283	–	–	–	–	–	0	53	95	5.973	9
NS(=O)(=O)c1cccc(N/C=C2\C(=O)Nc3ccc(S(=O)(=O)Cc4c(Cl)cccc4Cl)cc32)c1 [TCMDC-135947]	> 10000	116	–	–	99	4	92	6.143	1	–	–	–	–	–
Cc1csc(-c2ncc(OC[C@@H](N)Cc3ccccc3)cc2-c2ccc3[nH]nc(C)c3c2)c1.O=C(O)C(F)(F)F [TCMDC-136087]	> 10000	420	–	44	35	4	98	6.078	48	–	–	–	–	–
CCn1c(-c2nonc2N)nc2c(-c3cccc(NC(=O)Nc4cccc(C(F)(F)F)c4)c3)ncc(OCCCN)c21.O=C(O)C(F)(F)F [TCMDC-136178]	–	342	2080	15	–	–	–	–	–	2	70	95	6.014	21
CCn1c(-c2nonc2N)nc2c(-c3cccc(NC(=O)Nc4ccccc4OC)c3)ncc(OCCCN)c21.O=C(O)C(F)(F)F [TCMDC-136190]	–	706	783	32	–	–	–	–	–	0	58	92	5.998	84
CCn1c(-c2nonc2N)nc2c(-c3cccc(NC(=O)Nc4ccccc4Cl)c3)ncc(OCCCN)c21.O=C(O)C(F)(F)F [TCMDC-136192]	–	138	566	72	–	–	–	–	–	0	74	99	6.173	2
Cc1n[nH]c2ccc(-c3cc(OC[C@@H](N)Cc4ccccc4)cnc3-c3cc4ccccc4s3)cc12.O=C(O)C(F)(F)F [TCMDC-136352]	> 10000	563	–	–	68	0	99	6.092	41	–	–	–	–	–
CC(C)(C)CNCC(C)(C)c1nc(-c2ccc(Cl)c(O)c2)c(-c2ccncc2)[nH]1.Cl [TCMDC-140549]	–	637	> 10000	159	–	–	–	–	–	5	98	100	6.221	42
CC(C)(CN)c1nc(-c2ccc(Br)c(O)c2)c(-c2ccncc2)[nH]1.Cl [TCMDC-140680]	–	–	242	19	–	–	–	–	–	0	97	96	6.015	31

Now from value to molecule, other results behind:

IC50 [4] [nM]	IC50 [5] [nM]	IC50 [9] [nM]	IC50 [10] [nM]	Structure (SMILES)	PCT_INHB_DD2 [1]	PCT_INHIB_3D7_PFLDH [2]	PCT_IHB_3D7 ([3]; ref ChEMBL)	pXC50_3D7 ([3]; ref ChEMBL)	PCT_INHIB_HEPG2 ([6]; ref ChEMBL)	PCT_INHIB_3D7_PFLDH [7]	PCT_INHB_DD2 [8]	PCT_IHB_3D7 [3, 11]	pXC50_3D7 [3, 11]	PCT_INHIB_HEPG2 [6, 11]
> 10000	478	–	–	N#Cc1ccc(C(=O)Nc2cc(-c3cccc(O)c3)cc3[nH]ncc23)cc1 [TCMDC-134118]	79	0	90	5.863	15	–	–	–	–	–
–	352	> 10000	39	O=C(Nc1cccc(-c2nn3ncccc3c2-c2ccnc(Nc3ccccc3)n2)c1)c1c(F)cccc1F [TCMDC-134631]	–	–	–	–	–	0	96	98	6.139	51
–	775	> 10000	–	O=C(Nc1ccccc1)Nc1cccc(-c2nn3c(OCCN4CCCC4)cccc3c2-c2ccncc2)c1 [TCMDC-135539]	–	–	–	–	–	4	98	100	6.394	30
–	145	> 10000	23	O=C(Nc1cccc(-c2nn3ncccc3c2-c2ccnc(Nc3cccc(-c4cnco4)c3)n2)c1)c1c(F)cccc1F [TCMDC-135550]	–	–	–	–	–	2	98	97	6.779	96
–	191	> 10000	–	Cn1cccc1C(=O)Nc1cccc(-c2nn3ccccc3c2-c2ccnc(Nc3ccc4c(c3)OCCO4)n2)c1 [TCMDC-135663]	–	–	–	–	–	4	27	95	5.869	12
–	77	> 10000	60	COc1cc(Nc2nccc(-c3c(-c4cccc(NC(=O)c5c(F)cccc5F)c4)nn4ccccc34)n2)cc(OC)c1OC [TCMDC-135668]	–	–	–	–	–	4	98	98	7.112	74
–	201	> 10000	–	CCS(=O)(=O)c1ccc(OC)c(Nc2nccc(-c3c(-c4cccc(NC(=O)c5c(F)cccc5F)c4)nn4ncccc34)n2)c1 [TCMDC-135682]	–	–	–	–	–	0	88	87	5.986	27
–	45	> 10000	–	COc1cc(Nc2nccc(-c3c(-c4cccc(NC(=O)c5c(F)cccc5F)c4)nn4ncccc34)n2)cc(OC)c1OC [TCMDC-135684]	–	–	–	–	–	1	97	98	7.4867	96
–	612	> 10000	164	O=C(Nc1cccc(-c2nn3ccccc3c2-c2ccnc(Nc3cccc(-c4cnco4)c3)n2)c1)C1CCCCC1 [TCMDC-135769]	–	–	–	–	–	0	99	95	6.584	71
–	311	> 10000	92	O=C(Nc1cccc(-c2nn3ccccc3c2-c2ccnc(Nc3ccc(C(=O)N4CCOCC4)cc3)n2)c1)c1c(F)cccc1F [TCMDC-135910]	–	–	–	–	–	4	97	99	6.417	72
> 10000	73	–	–	CCN(CC)CCNC(=O)c1ccc(N/C=C2\C(=O)Nc3ccc(S(=O)(=O)Cc4c(Cl)cccc4Cl)cc32)cc1 [TCMDC-135945]	56	3	100	6.0758	25	–	–	–	–	–
–	853	> 10000	152	COCCOc1ccc(Nc2nccc(-c3c(-c4cccc(NC(=O)c5c(F)cccc5F)c4)nn4ccccc34)n2)cc1Cl [TCMDC-135955]	–	–	–	–	–	4	97	99	6.448	53
